Reference: patent publication US4333934A, “Imidazoquinoxalines and pyrroloquinoxalines” (Roussel Uclaf, priority 1979, dated 1982)
Where a name gives a salt, the structure may show the parent alone. Read-outs that look alike come from different tables or passages of the source.

Assays:
[1] = system: Passive cutaneous anaphylaxis (PCA) in rats; assay: Passive cutaneous anaphylaxis (PCA) in rats; format: in vivo, rat; conditions: for ED50: Rattus norvegicus
Description: Cutaneous anaphylaxis was induced in groups of male rats weighing 180-220 g by intradermal (ID) sensitization with antiserum followed three days later by systemic challenge with antigen. Evans blue dye injected with the antigen was used as a marker to assess the severity of the local response. Anti-allergic drugs inhibit this reaction and this method is described by OVARY [(1962) in "Passive cutaneous Anaphylaxis in Allergology" 358-367 Ed. Brown: Pergamon Press:].
1. Wash 120 grams Al (OH)3 gel in 140 ml of saline (use of a macerater facilitates mixing).
2. Centrifuge at 3,000 r.p.m. for about 10 minutes.
3. Resuspend the precipitate with 300 ml of albumen egg powder (1.3 mg/ml) in saline and allow to stand for 30 minutes.
4. Centrifuge at 3,000 r.p.m. for 10 minutes.
5. Weigh the wet precipitate and to each gram weight, add 1 ml of saline. Store in refrigerator. (Quantity sufficient for 60 rats for a 3 day sensitization programme).
1. 1 ml of the alum precipitated ovalbumen was injected subcutaneously into 180-220 gram rats on days 0,2,4.
2. The rats were bled on day 14 either by cardiac puncture or via the dorsal abdominal aorta.
3. Equal quantities of serum from each animal were pooled and thoroughly mixed.
4. 2 ml aliquots were stored at -20° C. in plastic tubes.
The antiserum for sensitization was diluted so that an ID injection of 0.1 ml into control animals gave an average score of a single spot of between 2.0-3.5 using a 5 point scoring system (0,1,2,3,4).
Rats were anaesthetised with Nembutal (40-60 mg/kg i.p.) and were then sensitized by four ID injections (0.1 ml each) on shaved backs. The animals were then left for a period of three days to develop sensitization.
The sensitized rats were dosed orally or intraveneously with the drug immediately prior to intraveneous challenge via the superficial penile vein with 1 ml of an antigen/Evans blue mixture (1 mg albumen egg powder in 0.5 ml saline plus 0.5 ml of 1% Evans blue). The injections were speeded up by using an automatic 1 ml self-filling glass syringe. The "challenged" rats were killed after 30 minutes, (usually pithed) and their skin on the dorsal surface was removed. The degree and area of blueing, proportional to the anaphylactic reaction was assessed on a five point scoring system.
1. Total scores for sites 1,2,3 and 4=X
2. Mean value of X for each group=X

[2] = Solubility remark (footnote of Table 1); format: physicochemical; conditions: all solvents
[3] = iv, read-out: ED50 (dose of drug giving 50% inhibition), i.v., dosed immediately prior to intravenous antigen challenge, male rats
[4] = po, read-out: ED50 (dose of drug giving 50% inhibition), p.o., dosed immediately prior to intravenous antigen challenge, male rats

solubility (in words) [2]	SMILES	ED50 [1, 3] [mg/kg]	ED50 [1, 4] [mg/kg]	ED50 (dose of drug giving 50% inhibition), p.o. ([1]; p.o., dosed immediately prior to intravenous antigen challenge, male rats) [mg/kg]
	OCc1cn2c(cnc3ccccc32)n1 [2 (as hydrochloride), Imidazo-[1,2-a]-quinoxaline-2-methanol]	0.16	0.068	
	c1ccc2c(c1)ncc1nc(-c3nnn[nH]3)cn12 [3 (as hydrochloride), 2-(1H-tetrazol-5-yl)-imidazo-[1,2-a]-quinoxaline]		0.084	0.089
extremely insoluble in all solvents	Clc1ccc2c(Cl)cc3nc(-c4nnn[nH]4)cn3c2c1 [11 Step C]			
	OCc1cn2c(ccc3ccccc32)n1 [Example 5, Imidazo-[1,2-a]-quinoline-2-methanol]		0.36	
	O=Cc1cn2c(ccc3ccccc32)n1 [Example 6, Imidazo-[1,2-a]-quinoline-2-carboxaldehyde]		0.09	
	c1ccc2c(c1)ccc1nc(-c3nnn[nH]3)cn12 [Example 7, 2-(1H-tetrazol-5-yl)-imidazo-[1,2-a]-quinoline]	0.026	0.105	
	NCc1cn2c(ccc3ccccc32)n1 [Example 8, Imidazo-[1,2-a]-quinoline-2-methanamine dihydrochloride]	0.11	0.98	
	COc1ccc2ccc3nc(CO)cn3c2c1 [Example 12]	0.27	0.24	
	COc1ccc2ccc3nc(C=O)cn3c2c1 [Example 13]	0.12	0.4	
	COc1ccc2ccc3nc(-c4nnn[nH]4)cn3c2c1 [Example 14, 8-methoxy-2-(1H-tetrazol-5-yl)-imidazo-[1,2-a]-quinoline]	0.01	0.12	
	COc1ccc2ccc3nc(CN)cn3c2c1 [Example 15]	3.39		
	CCn1c(=O)c2nc(CO)cn2c2ccccc21 [Example 21, 5-ethyl-2-hydroxymethyl-imidazo-[1,2-a]-quinoxaline-4-(5H)-one]		0.062	
	CCn1c(=O)c2nc(C=O)cn2c2ccccc21 [Example 22, 4,5-dihydro-5-ethyl-4-oxo-imidazo-[1,2-a]-quinoxaline-2-carboxaldehyde]		0.077	
	CCn1c(=O)c2cc(CO)cn2c2ccccc21 [Example 24, 5-ethyl-2-hydroxymethyl-pyrrolo-[1,2-a]-quinoxaline-4(5H)-one]		0.045	
	CCn1c(=O)c2cc(-c3nnn[nH]3)cn2c2ccccc21 [Example 26, 5-ethyl-2-(1H-tetrazol-5-yl)-pyrrolo-[1,2-a]-quinoxaline-4(5H)-one]	0.011	0.439	
	c1ccc2c(c1)OCc1nc(-c3nnn[nH]3)cn1-2 [Example 30, 4H-2-(1H-tetrazol-5-yl)-imidazo-[2,1-c][1,4]-benzoxazine]	0.33		
